Measured values reported in patent US9695155B2, “Herbicidal substituted pyrimidinyloxy benzene compounds” (E. I. DU PONT DE NEMOURS AND COMPANY, priority 2013, dated 2017).

Tests used:
[1] = tested on: morningglory; assay: Test A postemergence; type: in vivo, Ipomoea spp.; conditions: Ipomoea, post-emergence, 240 h, 0 to 100 scale where 0 is no effect and 100 is complete control, read-out: Plant response rating, Morningglory
Summary of the method: (§1)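 Scoring: eye-based comparison with untreated controls, 0 for no effect through 100 for complete control, at about day 10. Treatments: directed soil spray preemergence; foliar spray postemergence on 2–10 cm plants at the one- to two-leaf stage. Medium: loam soil with sand.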

[2] = tested on: pigweed; assay: Test A preemergence; type: in vivo, Amaranthus retroflexus; conditions: Amaranthus retroflexus, pre-emergence
Summary of the method: as §1

[3] = tested on: morningglory; assay: Test A preemergence; type: in vivo, Ipomoea spp.
Summary of the method: as §1

[4] = tested on: pigweed; assay: Test C postemergence; type: in vivo, Amaranthus retroflexus; conditions: Amaranthus retroflexus, post-emergence
Summary of the method: (§2)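 Whole-plant greenhouse test with surfactant-containing solvent formulation, applied preemergence to sown loam–sand pots or postemergence to 2–18 cm plants. Scored by eye 13 to 15 days on, 0–100 scale.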

[5] = tested on: barnyardgrass; assay: Test C postemergence; type: in vivo, Echinochloa crus-galli; conditions: Echinochloa crus-galli, post-emergence
Summary of the method: as §2

[6] = tested on: ragweed; assay: Test C postemergence; type: in vivo, Ambrosia elatior; conditions: Ambrosia artemisiifolia, post-emergence
Summary of the method: as §2

[7] = tested on: blackgrass; assay: Test C postemergence; type: in vivo, Alopecurus myosuroides; conditions: Alopecurus myosuroides, post-emergence
Summary of the method: as §2

[8] = tested on: kochia; assay: Test C postemergence; type: in vivo, Kochia scoparia; conditions: Bassia scoparia, post-emergence
Summary of the method: as §2

[9] = tested on: morningglory; assay: Test C postemergence; type: in vivo, Ipomoea coccinea; conditions: Ipomoea, post-emergence
Summary of the method: as §2

[10] = tested on: velvetleaf; assay: Test C postemergence; type: in vivo, Abutilon theophrasti; conditions: Abutilon theophrasti, post-emergence
Summary of the method: as §2

[11] = tested on: wheat; assay: Test A postemergence; type: in vivo, Triticum aestivum; conditions: Triticum aestivum, post-emergence, 240 h, 0 to 100 scale where 0 is no effect and 100 is complete control, read-out: Plant response rating, Wheat
Summary of the method: as §1

[12] = tested on: wild oat; assay: Test C postemergence; type: in vivo, Avena fatua; conditions: Avena fatua, post-emergence
Summary of the method: as §2

[13] = tested on: velvetleaf; assay: Test A preemergence; type: in vivo, Abutilon theophrasti
Summary of the method: as §1

[14] = tested on: barnyardgrass; assay: Test A preemergence; type: in vivo, Echinochloa crus-galli; conditions: Echinochloa crus-galli, pre-emergence, 240 h
Summary of the method: as §1

[15] = tested on: Heteranthera limosa; assay: Test B flooded paddy test; type: in vivo; conditions: Heteranthera limosa, Flood, 250 g ai/ha; 0 to 100 scale where 0 is no effect and 100 is complete control; read-out: Plant response rating, Ducksalad
Summary of the method: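 Flooded to 3 cm at the 2-leaf stage, pots received compound through the paddy water and were kept at that depth under greenhouse conditions. After 13–15 days, effect was rated by eye relative to controls, 0 = none and 100 = complete control.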

[16] = 125 g ai/ha, 0 to 100 scale where 0 is no effect and 100 is complete control

SMILES: N#Cc1cccc(Oc2ncc(F)cn2)c1-n1cc(C(F)(F)F)cn1 [Compound 79, 3-[(5-fluoro-2-pyrimidinyl)oxy]-2-[4-(trifluoromethyl)-1H-pyrazol-1-yl]benzonitrile]
- pest or weed control at 125 g/ha ([1]; 125 g ai/ha): 100%
- pest or weed control at 500 g/ha ([1]; 500 g ai/ha): 100%
- pest or weed control at 125 g/ha ([2]; 125 g ai/ha, 0 to 100 scale where 0 is no effect and 100 is complete control, read-out: Plant response rating, Pigweed): 100%
- pest or weed control at 500 g/ha ([2]; 240 h, 500 g ai/ha, 0 to 100 scale, 0 no effect, 100 complete control, approx. 10 days, read-out: Pigweed plant response rating): 100%
- Plant response rating, Morningglory [3, 16]: 100
- pest or weed control at 500 g/ha ([3]; Ipomoea, pre-emergence, 240 h, 500 g ai/ha, 0 to 100 scale, 0 no effect, 100 complete control, approx. 10 days, read-out: Morningglory plant response rating): 100%
- pest or weed control at 125 g/ha ([4]; 125 g ai/ha, postemergence, read-out: Plant response rating (0 to 100), Pigweed): 95%
- pest or weed control at 250 g/ha ([4]; 250 g ai/ha, postemergence, read-out: Plant response rating (0 to 100), Pigweed): 98%
- pest or weed control at 31 g/ha ([4]; Postemergence, 31 g ai/ha, scale 0 to 100 (0 no effect, 100 complete control), 13 to 15 days, read-out: Plant response rating, Pigweed): 75%
- pest or weed control at 62 g/ha ([4]; Postemergence, 62 g ai/ha, scale 0 to 100 (0 no effect, 100 complete control), read-out: Plant response rating, Pigweed): 95%
- pest or weed control at 125 g/ha ([5]; 125 g ai/ha, postemergence, read-out: Plant response rating (0 to 100), Barnyardgrass): 20%
- pest or weed control at 250 g/ha ([5]; 250 g ai/ha, postemergence, read-out: Plant response rating (0 to 100), Barnyardgrass): 75%
- pest or weed control at 31 g/ha ([5]; Postemergence, 31 g ai/ha, scale 0 to 100 (0 no effect, 100 complete control), 13 to 15 days, read-out: Plant response rating, Barnyardgrass): 5%
- pest or weed control at 62 g/ha ([5]; Postemergence, 62 g ai/ha, scale 0 to 100 (0 no effect, 100 complete control), read-out: Plant response rating, Barnyardgrass): 5%
- pest or weed control at 125 g/ha ([6]; 125 g ai/ha, postemergence, read-out: Plant response rating (0 to 100), Ragweed): 70%
- pest or weed control at 250 g/ha ([6]; 250 g ai/ha, postemergence, read-out: Plant response rating (0 to 100), Ragweed): 85%
- pest or weed control at 31 g/ha ([6]; Postemergence, 31 g ai/ha, scale 0 to 100 (0 no effect, 100 complete control), 13 to 15 days, read-out: Plant response rating, Ragweed): 55%
- pest or weed control at 62 g/ha ([6]; Postemergence, 62 g ai/ha, scale 0 to 100 (0 no effect, 100 complete control), read-out: Plant response rating, Ragweed): 70%
- pest or weed control at 125 g/ha ([7]; 125 g ai/ha, postemergence, read-out: Plant response rating (0 to 100), Blackgrass): 35%
- pest or weed control at 250 g/ha ([7]; 250 g ai/ha, postemergence, read-out: Plant response rating (0 to 100), Blackgrass): 80%
- pest or weed control at 31 g/ha ([7]; Postemergence, 31 g ai/ha, scale 0 to 100 (0 no effect, 100 complete control), 13 to 15 days, read-out: Plant response rating, Blackgrass): 10%
- pest or weed control at 62 g/ha ([7]; Postemergence, 62 g ai/ha, scale 0 to 100 (0 no effect, 100 complete control), read-out: Plant response rating, Blackgrass): 30%
- pest or weed control at 125 g/ha ([8]; 125 g ai/ha, postemergence, read-out: Plant response rating (0 to 100), Kochia): 95%
- pest or weed control at 250 g/ha ([8]; 250 g ai/ha, postemergence, read-out: Plant response rating (0 to 100), Kochia): 95%
- pest or weed control at 31 g/ha ([8]; Postemergence, 31 g ai/ha, scale 0 to 100 (0 no effect, 100 complete control), 13 to 15 days, read-out: Plant response rating, Kochia): 90%
- pest or weed control at 62 g/ha ([8]; Postemergence, 62 g ai/ha, scale 0 to 100 (0 no effect, 100 complete control), read-out: Plant response rating, Kochia): 90%
- pest or weed control at 125 g/ha ([9]; 125 g ai/ha, postemergence, read-out: Plant response rating (0 to 100), Morningglory): 95%
- pest or weed control at 250 g/ha ([9]; 250 g ai/ha, postemergence, read-out: Plant response rating (0 to 100), Morningglory): 98%
- pest or weed control at 31 g/ha ([9]; Postemergence, 31 g ai/ha, scale 0 to 100 (0 no effect, 100 complete control), 13 to 15 days, read-out: Plant response rating, Morningglory): 70%
- pest or weed control at 62 g/ha ([9]; Postemergence, 62 g ai/ha, scale 0 to 100 (0 no effect, 100 complete control), read-out: Plant response rating, Morningglory): 95%
- pest or weed control at 125 g/ha ([10]; 125 g ai/ha, postemergence, read-out: Plant response rating (0 to 100), Velvetleaf): 70%
- pest or weed control at 250 g/ha ([10]; 250 g ai/ha, postemergence, read-out: Plant response rating (0 to 100), Velvetleaf): 90%
- pest or weed control at 31 g/ha ([10]; Postemergence, 31 g ai/ha, scale 0 to 100 (0 no effect, 100 complete control), 13 to 15 days, read-out: Plant response rating, Velvetleaf): 55%
- pest or weed control at 62 g/ha ([10]; Postemergence, 62 g ai/ha, scale 0 to 100 (0 no effect, 100 complete control), read-out: Plant response rating, Velvetleaf): 70%
- plant injury at 125 g/ha ([11]; 125 g ai/ha): 80%
- plant injury at 500 g/ha ([11]; 500 g ai/ha): 90%
- pest or weed control at 125 g/ha ([12]; 125 g ai/ha, postemergence, read-out: Plant response rating (0 to 100), Oat, Wild): 20%
- pest or weed control at 250 g/ha ([12]; 250 g ai/ha, postemergence, read-out: Plant response rating (0 to 100), Oat, Wild): 50%
- pest or weed control at 31 g/ha ([12]; Postemergence, 31 g ai/ha, scale 0 to 100 (0 no effect, 100 complete control), 13 to 15 days, read-out: Plant response rating, Oat, Wild): 10%
- pest or weed control at 62 g/ha ([12]; Postemergence, 62 g ai/ha, scale 0 to 100 (0 no effect, 100 complete control), read-out: Plant response rating, Oat, Wild): 15%
- Plant response rating, Velvetleaf [13, 16]: 100
- pest or weed control at 500 g/ha ([13]; Abutilon theophrasti, pre-emergence, 240 h, 500 g ai/ha, 0 to 100 scale, 0 no effect, 100 complete control, approx. 10 days, read-out: Velvetleaf plant response rating): 100%
- pest or weed control at 125 g/ha ([14]; 125 g ai/ha, 0 to 100 scale where 0 is no effect and 100 is complete control, read-out: Plant response rating, Barnyardgrass): 100%
- pest or weed control at 500 g/ha ([14]; 500 g ai/ha, 0 to 100 scale, 0 no effect, 100 complete control, approx. 10 days, read-out: Barnyardgrass plant response rating): 100%
- pest or weed control at 250 g/ha [15]: 95%
